Source: US9170264B2, “Methods of monitoring for adherence to aripiprazole therapy” (Ameritox, Ltd., priority 2013, dated 2015)
Several values for one entry are separate records, joined by “and”; a condition that tells them apart may be missing. Equal values may be shown once.

Legend:
[1] = Urine testing of aripiprazole positive patients in a controlled study, LC/MSMS (Example 2); assay type: in vivo, human; settings: 5 mg q day, individual samples, LLOQ aripiprazole 5, dehydroaripiprazole 5, OPC3373 25 ng/mL
Procedure: (§1) The concentration of any analyte described in the present disclosure may be determined (e.g., measured) by any suitable quantification method. In some embodiments, the concentration of an analyte (e.g., aripiprazole, dehydroaripiprazole, and/or OPC3373) is measured by tandem liquid chromatography-mass spectrometry-mass spectrometry (“LC/MSMS”). In some embodiments, the concentration of an analyte (e.g., aripiprazole, dehydroaripiprazole, and/or OPC3373) is measured by tandem liquid chromatography-High Resolution mass spectrometry (Time of Flight (TOF)) (“LC/MS(TOF)”). In some embodiments, the concentration of an analyte (e.g., aripiprazole, dehydroaripiprazole, and/or OPC3373) is measured by direct injection mass spectrometry-mass spectrometry ([…]) e.g., such systems as RapidFire™ (Agilent) or Laser Diode Thermal Desorption (“LDTD”) (Phytronix) to introduce samples into the mass spectrometer; either triple quadrupole (i.e., MSMS) or exact mass (i.e., Time of Flight, Orbitrap, etc.) instruments
An additional set of aripiprazole positive patients was monitored for levels of aripiprazole, dehyrdroaripiprazole, and OPC3373 in their urine.
Dehydroaripiprazole: 5 ng/mL
These analyses were completed using LC/MSMS.

[2] = cited from earlier work
[3] = Urine testing for compliance over 5 days, patients prescribed 5 mg/day Abilify (Example 7); assay type: in vivo, human; set-up: Aripiprazole (urine test result) / Dehydroaripiprazole (urine test result): unit not given here; settings: for Aripiprazole (urine test result) / Dehydroaripiprazole (urine test result): human urine, patients prescribed 5 mg/day Abilify
Procedure: as §1
The urine of 25 patients who were prescribed 5 mg of Abilify® (aripiprazole) was tested for compliance over 5 days (Table 11). […] Without OPC3373, only 47% were determined to be positive with patients just being below the reporting cutoffs for both aripiprazole and dehydroaripiprazole. Thus, use of OPC3373 as a urine biomarker at this lower dose adds a great deal of value to compliance monitoring for Abilify®.

[4] = Urine testing for compliance over 5 days, patients prescribed 2 mg/day Abilify (Example 8); assay type: in vivo, human; set-up: Urine concentration, individual subject: unit not given here
Procedure: as §1
The urine of 15 patients who were prescribed 2 mg of Abilify® (aripiprazole) was tested for compliance over 5 days (Table 14). […] Without OPC3373, only 24% were determined to be positive with patients just being below the reporting cutoffs for both aripiprazole and dehydroaripiprazole. Thus, use of OPC3373 as a urine biomarker at this lower dose makes compliance monitoring for Abilify® possible. […] However, OPC3373 in subject M confirmed the subject's adherence to aripirazole therapy despite the low observed creatinine level.

[5] = Levels of OPC3373, aripiprazole and dehydroaripiprazole in urine of humans taking chronic doses of aripiprazole (Example 1); assay type: in vivo, human; settings: for Levels in Human Urine: individual specimens, chronic doses of aripiprazole, LOQ OPC3373 100 ng/mL, dehydroaripiprazole 5 ng/mL, aripiprazole 5 ng/mL
Procedure: as §1
The appearance of OPC3373 (4-[(2-Oxo-1,2,3,4-tetrahydro-7-quinolinyl)oxy]butanoic acid, BMS-337047) as the major aripiprazole metabolite in the urine can be used to help monitor patient adherence to aripiprazole therapy. While analysis of both aripiprazole and the plasma metabolite, dehydroaripiprazole, can be used to monitor patient adherence, the relatively low levels of these molecules in the urine frequently results in “false negatives” in patients known to be taking aripiprazole.

[6] = Urine testing for compliance over 5 days, patients prescribed 15 mg/day Abilify (Example 5); assay type: in vivo, human; set-up: urine concentration: unit not given here; settings: for urine concentration, Avg / urine concentration, Max / urine concentration, Min: n 69 samples
Procedure: as §1
The urine of 23 patients who were prescribed 15 mg of Abilify® (aripiprazole) was tested for compliance over 5 days (Table 7). […] Without OPC3373, only 78% were determined to be positive with patients just being below the reporting cutoffs for both aripiprazole and dehydroaripiprazole. […] Thus, use of OPC3373 as a urine biomarker at this dose adds value to compliance monitoring for Abilify®.

[7] = Urine testing for compliance over 5 days, patients prescribed 20 mg/day Abilify (Example 4); assay type: in vivo, human; settings: n 66 samples
Procedure: as §1
The urine of 22 patients who were prescribed 20 mg of Ability (e.g., aripiprazole) was tested for compliance over 5 days (Table 5). […] Without OPC3373, only 85% were determined to be positive with patients just being below the reporting cutoffs for both aripiprazole and dehydroaripiprazole. Thus, use of OPC3373 as a urine biomarker even at this relatively high dose adds value to compliance monitoring for Abilify®.

[8] = Urine testing for compliance over 5 days, patients prescribed 10 mg/day Abilify (Example 6); assay type: in vivo, human; settings: n 111 samples
Procedure: as §1
The urine of 37 patients who were prescribed 10 mg of Abilify® (aripiprazole) was tested for compliance over 5 days (Table 9). […] Without OPC3373, only 61% were determined to be positive with patients just being below the reporting cutoffs for both aripiprazole and dehydroaripiprazole. Thus, use of OPC3373 as a urine biomarker at this dose adds value to compliance monitoring for Abilify®.

[9] = Urine testing for compliance over 5 days, patients prescribed 30 mg/day Abilify (Example 3); assay type: in vivo, human; settings: for urine concentration: 30 mg/day Abilify, individual subjects
Procedure: as §1
The urine of 5 patients who were prescribed 30 mg of Abilify® (aripiprazole) was tested for compliance over 5 days (Table 3). […] Without OPC3373, only 93% were determined to be positive with one patient either having stopped taking their medicine between day 4 and 5 or just being below the reporting cutoffs for both aripiprazole and dehydroaripiprazole. Thus, use of OPC3373 as a urine biomarker even at this relatively high dose adds value to compliance monitoring for Abilify®.

[10] = Day 1, subjects A-O (one value per subject)
[11] = Day 4, subjects A-O (one value per subject)
[12] = Day 5, subjects A-O (one value per subject)

Compound: O=C1CCc2ccc(OCCCCN3CCN(c4cccc(Cl)c4Cl)CC3)cc2N1 [Aripiprazole]
- Abilify Urine Results [1]: 0 ng/mL and 11.1 ng/mL and 22.3 ng/mL and 9.4 ng/mL and 19.4 ng/mL and 11.6 ng/mL
- oral dose excreted as unchanged aripiprazole in faeces ([2]; faeces, humans): 8-18%
- time of dosing until steady state serum concentrations are achieved ([2]; in vivo): two
- share of a dose represented in plasma [2]: 57%
- oral dose excreted as unchanged aripiprazole in urine ([2]; urine, humans): Less than 1%
- Aripiprazole (urine test result) ([3]; Day 1): 10.1 and 0 (13×) and 9 and 7.5 and 5.0 and 9.7 and 8.5 and 8.8 and 8.4 and 13.1 and 6.4 and 38.4 and 5.4
- Aripiprazole (urine test result) ([3]; Day 4): 21.5 and 11.3 and 6.6 (2×) and 0.0 (2×) and 5.2 and 0 (9×) and 32.4 and 13.1 and 15.6 and 6.5 and 10.3 and 7.5 and 5.5 and 9.5 and 11.8
- Aripiprazole (urine test result) ([3]; Day 5): 10.2 and 5.1 and 7.3 and 0 (15×) and 14.9 and 0.0 and 5.3 and 10.1 and 12.7 and 9.7 and 31.6
- Urine concentration, individual subject [4, 10]: 9.0 and 0 (6×) and 7.9
- Urine concentration, individual subject [4, 11]: 0
- Urine concentration, individual subject [4, 12]: 10.5 and 0 (4×) and 30.9 and 6.1
- Levels in Human Urine [5]: 9.5 ng/mL and <5.0 ng/mL (9×) and 32.4 ng/mL and 9.7 ng/mL and 53.3 ng/mL and 84.9 ng/mL and 38.7 ng/mL and 10 ng/mL and 0.0 ng/mL (2×) and 17.4 ng/mL and 17.9 ng/mL and 5.0 ng/mL and 39.5 ng/mL
- Range of levels in Human Urine ([5]; over 22 specimens, * below LOQ): 5 to 100 ng/mL
- urine concentration ([6]; Day 1, individual subjects): 52.2 and 0 (6×) and 5.3 and 15.1 and 31.2 and 15.4 and 17.9 and 20.0 and 31.5 and 9.8 and 8.9 and 17.5 and 15.0 and 10.1 and 5.4 and 19.4 and 27.6 and 14.6
- urine concentration ([6]; Day 4, individual subjects): 31.7 and 19.5 and 39.3 and 10.2 and 8.9 and 12.3 and 0 (8×) and 40 and 26.7 and 45.3 and 14.5 and 6.2 and 5.7 and 7.9 and 62.3 and 19.0
- urine concentration ([6]; Day 5, individual subjects): 22.8 and 0 (5×) and 16.4 and 9.3 and 6.9 and 32.1 and 37.1 and 16.7 and 7.4 and 57.3 and 12.3 and 14.2 (2×) and 7.5 and 17.7 and 25.3 and 5.1 and 76.7 and 9.6
- urine concentration, Avg [6]: 15.29
- urine concentration, Max [6]: 76.70
- urine concentration, Min [6]: 0.00

Compound: O=c1ccc2ccc(OCCCCN3CCN(c4cccc(Cl)c4Cl)CC3)cc2[nH]1 [Dehydroaripiprazole, dehydroaripiprazole]
- Abilify Urine Results [1]: 0 ng/mL (3×) and 6.5 ng/mL and 5.2 ng/mL and 6.4 ng/mL
- urine concentration, Avg [7]: 12.30
- urine concentration, Max [7]: 91.40
- urine concentration, Min [7]: 0.00
- share of a dose represented in plasma [2]: 20%
- Urine drug/metabolite concentration, Extremes ([3]; 5 mg/day Abilify, Day 1): 0-6.5
- Urine drug/metabolite concentration, Mean +/- SD ([3]; 5 mg/day Abilify, Day 1): 2.3 +/− 3.2
- Urine drug/metabolite concentration, Median ([3]; 5 mg/day Abilify, Day 1): 0
- Urine drug/metabolite concentration, Extremes ([3]; 5 mg/day Abilify, Day 4): 0-6.1
- Urine drug/metabolite concentration, Median ([3]; 5 mg/day Abilify, Day 4): 0
- Urine drug/metabolite concentration, Extremes ([3]; 5 mg/day Abilify, Day 5): 0-8.2
- Urine drug/metabolite concentration, Median ([3]; 5 mg/day Abilify, Day 5): 0
- urine concentration, Avg ([3]; 5 mg/day Abilify, n 75 samples): 1.96
- urine concentration, Max ([3]; 5 mg/day Abilify, n 75 samples): 17.1
- urine concentration, Min ([3]; 5 mg/day Abilify, n 75 samples): 0
- Dehydroaripiprazole (urine test result) ([3]; Day 1): 6.6 and 0 (20×) and 5.1 and 7.4 and 5.3 and 8.7
- Dehydroaripiprazole (urine test result) ([3]; Day 4): 10.2 and 0 (19×) and 17.1 and 8.0 and 7.5 and 7.4 and 8.4
- Dehydroaripiprazole (urine test result) ([3]; Day 5): 5.7 and 0 (19×) and 5.2 and 5.5 and 15.8 and 8.2 and 15.1
- urine concentration, Max [8]: 64.8
- urine concentration, Min [8]: 0
- urine concentration, avg [8]: 6.27
- Urine drug/metabolite concentration, Extremes ([4]; Day 1): 0-7.4
- Urine drug/metabolite concentration, Mean +/- SD ([4]; Day 1): 0.5 +/− 1.9
- Urine drug/metabolite concentration, Median ([4]; Day 1): 0
- Urine concentration, individual subject [4, 10]: 0
- Urine drug/metabolite concentration, Extremes ([4]; Day 4): 0-0
- Urine drug/metabolite concentration, Mean +/- SD ([4]; Day 4): 0 +/− 0
- Urine drug/metabolite concentration, Median ([4]; Day 4): 0
- Urine concentration, individual subject [4, 11]: 0
- Urine drug/metabolite concentration, Extremes ([4]; Day 5): 0-0
- Urine drug/metabolite concentration, Mean +/- SD ([4]; Day 5): 0 +/− 0
- Urine drug/metabolite concentration, Median ([4]; Day 5): 0
- Urine concentration, individual subject [4, 12]: 0 (13×) and 10.7 and 0.0
- urine concentration, Avg ([4]; n 45 samples): 0.24
- urine concentration, Max ([4]; n 45 samples): 10.7
- urine concentration, Min ([4]; n 45 samples): 0
- urine concentration ([9]; Day 1): 11.5 and 29.2 and 6.8 and 56.9 and 14.1
- urine concentration ([9]; Day 4): 14.1 and 84.8 and 11.0 and 36.3 and 16.6
- urine concentration ([9]; Day 5): 0 and 17.0 and 8.9 and 89.7 and 28.1
- urine concentration, Avg ([9]; 30 mg/day, n 15 samples): 28.33 ng/mL
- urine concentration, Max ([9]; 30 mg/day, n 15 samples): 89.70 ng/mL
- urine concentration, Min ([9]; 30 mg/day, n 15 samples): 0.00 ng/mL
- Levels in Human Urine [5]: <5.0 ng/mL (7×) and 5.1 ng/mL (2×) and 14.1 ng/mL and 0.0 ng/mL (5×) and 17.8 ng/mL and 20.1 ng/mL and 5.9 ng/mL and 0 ng/mL and 15.8 ng/mL and 8.8 ng/mL and 56.1 ng/mL
- Range of levels in Human Urine ([5]; over 22 specimens, * below LOQ): 5 to 75 ng/mL
- urine concentration ([6]; Day 1, individual subjects): 27.9 and 0 (6×) and 21 and 10.1 and 5.9 and 11.4 (2×) and 12.8 and 25.4 and 12.3 and 6.7 and 6.1 and 5.5 and 9.6 and 5.2 and 5.1 and 14.6 and 6.6
- urine concentration ([6]; Day 4, individual subjects): 16.8 and 7.4 and 20.7 and 7.5 and 0 (11×) and 24 and 21.0 and 10.1 and 25.8 and 8.6 and 8.1 and 14.3 and 8.0
- urine concentration ([6]; Day 5, individual subjects): 12.8 and 0 (9×) and 5.2 and 17.0 and 24.1 (2×) and 23.1 and 23.9 and 33.3 and 12.3 and 6.5 and 11.2 and 16.6 and 0.0 and 24.9
- urine concentration, Avg [6]: 8.76
- urine concentration, Max [6]: 33.30
- urine concentration, Min [6]: 0.00

Compound: O=C(O)CCCOc1ccc2c(c1)NC(=O)CC2 [OPC3373, 4-[(2-Oxo-1,2,3,4-tetrahydro-7-quinolinyl)oxy]butanoic acid]
- share of a dose represented in plasma [2]: 2%
- recovered from a dose as urinary metabolite ([2]; urine, reported by Baselt): 19%
- Range of levels in Human Urine ([5]; human, in vivo): 10*-1500 ng/mL
